In this data set the test system is chicken embryos. In words: Embryo mortality after in ovo exposure (air sac injection E7, examined E12). It counts as in vivo, Gallus gallus domesticus. The procedure:
Controls were injected with 20 μL vehicle only (DMSO).
Embryos were dissected and sampled on E12. The treatment group was concealed to the one carrying out embryo dissections and the order of dissection of the embryos was randomized. The embryos were examined for viability and gross morphology, e.g. appearance of the liver. The sex was determined by the presence of a pair of testes or an ovary.
Mortality rates were analyzed with Fisher’s exact test.

The mark [1] stands for this setting: in ovo injection E7, sampled E12, 150 μg/egg.
Where [2] appears, read: in ovo injection E7, sampled E12, PFOA 50 μg/egg.
Setting [3] is: in ovo injection E7, sampled E12, PFOA 250 μg/egg.
Where [4] appears, read: in ovo injection E7, sampled E12, PFOA 1000 μg/egg.

3 compounds from PMC4666608, “Metabolic Profiling of Chicken Embryos Exposed to Perfluorooctanoic Acid (PFOA) and Agonists to Peroxisome Proliferator-Activated Receptors” (PLoS ONE, 2015) can be followed below.

Structures are written as SMILES. Where “and” joins values, the source holds several entries; their conditions need not be identical. Equal values may be shown once.

With `CC(C)(Sc1ccc(CCN(CCCCC2CCCCC2)C(=O)NC2CCCCC2)cc1)C(=O)O` [GW7647, reference compound], under setting [1], the Mortality rate is 0% and the “Mortality rate, Ratio” value is on record as 0/40.

In the case of `O=C(O)C(F)(F)C(F)(F)C(F)(F)C(F)(F)C(F)(F)C(F)(F)C(F)(F)F` [PFOA, perfluorooctanoic acid], the Mortality rate came out at 40% (PFOA 1000 μg/egg, replicate A); 60% (PFOA 1000 μg/egg, replicate B); 33% (PFOA 1000 μg/egg, replicate C); 7% (PFOA 1000 μg/egg, replicate D); 5% under setting [2]; 2.5% under setting [3]. Also, the Mortality rate under setting [4] was 35% and 35 ^*** %. Moreover, under “exposed E7 to E12”, the “Dose with increased mortality” value was 18 mg/kg egg. The “Dose with no effect on survival (no effect level)” value (exposed E7 to E12) is 4.2 mg/kg egg. Under “follow-up study, PFOA 1000 μg/egg, N = 25, control 12%”, this compound showed a Mortality of 40%. Also, the “Mortality rate, Ratio” value reads like this: under setting [2], 2/40; under setting [3], 1/40; under setting [4], 19/54.

`CN(CCOc1ccc(CC2SC(=O)NC2=O)cc1)c1ccccn1` (centres unmarked) [Rosiglitazone, rosiglitazone, reference compound]: under setting [1], the Mortality rate is 5% and the “Mortality rate, Ratio” value is given as 2/40.
